In US11230535B2, “CFTR regulators and methods of use thereof” (THE REGENTS OF THE UNIVERSITY OF CALIFORNIA, priority 2015, dated 2022):
Entries after “also recorded” stand apart in the source; their conditions may differ.

Tests used:
mouse colon = experiment: Short-circuit current in freshly harvested mouse colon; conditions: freshly isolated mouse colon; read-out: EC50, increase in short-circuit current (Cl− secretion)
Procedure: Short-circuit current was measured in FRT cells stably expressing wild-type human CFTR cultured on porous filters as described. The basolateral solution contained 130 mM NaCl, 2.7 mM KCl, 1.5 mM KH2PO4, 1 mM CaCl2, 0.5 mM MgCl2, 10 mM glucose, and 10 mM Na-HEPES (pH 7.3, 37° C.). In the apical solution 65 mM NaCl was replaced by Na gluconate, and CaCl2 was increased to 2 mM, and the basolateral membrane was permeabilized with 250 μg/ml amphotericin B. Short-circuit current was measured in freshly harvested adult mouse colon at 37° C. using symmetrical Krebs-bicarbonate buffer.
Short-circuit current measurement. Short-circuit current was measured in FRT cells stably expressing wild-type human CFTR cultured on porous filters as described. The basolateral solution contained 130 mM NaCl, 2.7 mM KCl, 1.5 mM KH2PO4, 1 mM CaCl2, 0.5 mM MgCl2, 10 mM glucose, and 10 mM Na-HEPES (pH 7.3, 37° C.). In the apical solution 65 mM NaCl was replaced by Na gluconate, and CaCl2 was increased to 2 mM, and the basolateral membrane was permeabilized with 250 μg/ml amphotericin B. Short-circuit current was measured in freshly harvested adult mouse colon at 37° C. using symmetrical Krebs-bicarbonate buffer.

[1] = 7-day oral toxicity study in mice (blood count, serum chemistry, body weight, lung wet/dry weight); assay type: in vivo, mouse
Text: Chronic administration and toxicity studies.

loperamide-treated mice = experiment: Loperamide-induced mouse model of constipation (3-h stool weight, pellet number, water content)
[2] = tested on: BALB/c mice after lacrimal gland excision; experiment: Lacrimal gland excision (LGE) mouse model of aqueous-deficient dry eye; assay type: in vivo
Procedure: To assess corneal epithelial disruption, 5 μL of lissamine green (LG) dye (1%) was applied to the ocular surface of isofluorane-anesthetized mice. Photographs of the eye were taken using a Nikon Digital camera adapted to an Olympus Zoom Stereo Microscope (Olympus, Center Valley, Pa., USA). Each corneal quadrant was scored on a 3-point scale by one blinded, trained observer, with the extent of staining in each quadrant classified as: 0, no staining; 1, sporadic (involving <25% of the total surface) staining; grade 2, diffuse punctate staining (25-75%); and grade 3, coalesced punctate staining (≥75%). The total grade is reported as the sum of scores from all four quadrants, ranging from 0 to 12.
A lacrimal gland excision (LGE) model of aqueous-deficient dry eye was adapted from a reported method (30). The extraorbital lacrimal gland was exposed on each side of wild-type female BALB/c mice (7-8 weeks of age) by 3-mm linear skin incisions. Lacrimal ducts were cauterized and the entire gland was removed bilaterally, avoiding facial vessels and nerves. Incisions were each closed with a single interrupted 6-0 silk suture. Orbital lacrimal tissue remained functional. Eyes with reduced corneal sensation (<5% of mice studied), as identified from neurotrophic corneal ulcers within 1 day of LGE, were excluded. Mice were randomized to receive either treatment (in both eyes) with CFTRact-K089 (0.1 nmol) or vehicle. Mice were treated three times daily (8 AM, 2 PM and 8 PM) for 2 weeks starting on Day 1 after LGE. Tear secretion and LG staining were performed immediately prior to, and one hour after the initial dose on day 4, 10 and 14 after LGE.
Lissamine green staining. […] Each corneal quadrant was scored on a 3-point scale by one blinded, trained observer, with the extent of staining in each quadrant classified as: 0, no staining; 1, sporadic (involving <25% of the total surface) staining; grade 2, diffuse punctate staining (25-75%); and grade 3, coalesced punctate staining (≥75%). […]

[3] = Tear film pharmacokinetics (LC/MS of tear washes)
[4] = Chemical stability in ophthalmic vehicle (LC/MS); assay type: physicochemical; conditions: 100 μM, 0.3% CMC in Ringer's solution, 24 h at 40° C.
[5] = 10 mg/kg oral once per day, 7 days
[6] = 0.1 nmol topical three times daily

Nc1ccc([N+](=O)[O-])cc1-c1nc2ccccc2n(Cc2ccccc2)c1=O [CFTRact-J027, 3-(2-amino-5-nitrophenyl)-1-benzylquinoxalin-2(1H)-one]
EC50 (mouse colon): ~300 nM | toxicity after chronic administration ([1]; 10 mg/kg oral): without apparent toxicity | ALP [1, 5]: 53 ± 2.5 U/L | ALT [1, 5]: 44 ± 6 U/L | AST [1, 5]: 105 ± 11 U/L | Albumin [1, 5]: 2.9 ± 0.03 g/dL | BUN [1, 5]: 18.4 ± 1.2 mg/dL | Bicarbonate [1, 5]: 16 ± 1.7 mmol/L | CK [1, 5]: 312 ± 62 U/L | Calcium [1, 5]: 8.5 ± 0.04 mg/dL | Chloride [1, 5]: 115 ± 1 mmol/L | Cholesterol [1, 5]: 121 ± 6 mg/dL | Creatinine [1, 5]: 0.2 ± 0 mg/dL | Globulin [1, 5]: 2.2 ± 0.1 g/dL | Glucose [1, 5]: 164 ± 6 mg/dL | Hemoglobin [1, 5]: 12.8 ± 0.3 g/dL | Leukocytes [1, 5]: 1.9 ± 0.5 10^3/μL | Phosphorus [1, 5]: 6.8 ± 0.3 mg/dL | Potassium [1, 5]: 4.4 ± 0.1 mmol/L | Sodium [1, 5]: 151 ± 0.7 mmol/L | Thrombocytes [1, 5]: 900 ± 48 10^3/μL | Total bilirubin [1, 5]: 0.1 ± 0 mg/dL | Total protein [1, 5]: 5.2 ± 0.1 g/dL | body weight and airway/lung fluid accumulation ([1]; 7-day treated mice): nor did it change body weight or produce airway/lung fluid accumulation | lung water content ([1]; 7-day treated mice): normal lung water content | serum chemistry and blood parameters, in words ([1]; 7-day treated mice): did not affect the major serum chemistry and blood parameters | stool weight, pellet number, water content (loperamide-treated mice; 10 mg/kg ip, loperamide-treated mice): normalized each of the stool parameters | efficacy after chronic administration (loperamide-treated mice; 10 mg/kg oral daily for 7 days, loperamide 1 h after final dose): remained effective in normalizing stool output and water content | effect on stool parameters in cystic fibrosis mice (loperamide-treated mice; CF mice lacking functional CFTR): without effect | stool output or water content in control mice (loperamide-treated mice; ip, non-loperamide-treated mice): did not affect stool output or water content | stool output, oral, control mice (loperamide-treated mice; oral 10 mg/kg, control mice): no effect | stool output and water content, oral administration (loperamide-treated mice; oral (10 mg/kg) 1 h before loperamide, 10 mg/kg): normalized stool output and water content; also recorded: effective in normalizing stool output and water content | ED50, oral administration (loperamide-treated mice; oral, loperamide model): 0.5 mg/kg

CCN(CC)c1nc(Nc2ccccc2)nc(OC(C(F)(F)F)C(F)(F)F)n1 [CFTRact-K089, N,N-Diethyl-6-[(1,1,1,3,3,3-hexafluoropropan-2-yl)oxy]-N′-phenyl-1,3,5-triazine-2,4-diamine]
LG score change ([2]; 0.1 nmol three times daily, by Day 14, 12-point scale): −0.6±0.6 | corneal / ocular surface epithelial disruption after LGE [2, 6]: fully prevented the corneal epithelial disruption; also recorded: prevented ocular surface epithelial disruption at all time points | tear secretion / tear volume after LGE [2, 6]: restored tear secretion to basal levels; also recorded: maintained basal tear volume | amount recovered from tear fluid at six hours ([3]; 0.1 nmol (2 μL, 50 μM) instilled): 0.011 ± 0.004 pmol | duration of predicted therapeutic levels in tear fluid ([3]; 0.1 nmol instilled): at least six | tear film bioavailability, in words ([3]; topical): sustained tear film bioavailability

CNc1nc(Nc2ccccc2)nc(OCC(F)(F)C(F)F)n1 [compound 12, N-methyl-N′-phenyl-6-(2,2,3,3-tetrafluoropropoxy)-1,3,5-triazine-2,4-diamine]
chemical stability in ophthalmic vehicle [4]: stable at 100 μM in an ophthalmic vehicle; also recorded: remained chemically stable
